# According to patent US7855196B2 (priority 2005, dated 2010):
# Like-named read-outs stand apart in the source and are kept apart here.
# Tests used:
# [1] = Sedation / side effects observed in treated patients (clinical case examples)
smiles,measurement,setting,value
"Cc1nnc2n1-c1ccc(Cl)cc1C(c1ccccc1)=NC2 [alprazolam, 8-chloro-1-methyl-6-phenyl-4H-s-triazolo[4,3-a][1,4] benzodiazepine]",pain rating after treatment,"human, in vivo",4/10
same,pain remission,"human, in vivo",increased period of pain remission
same,pain response,"human, in vivo",sustained results
same,sedation limiting augmentation of dosage,[1]; Example 1: alprazolam 0.5 mg TID and 2 mg HS,severe patient sedation
same,sedation limiting augmentation of dosage,[1]; Example 2: alprazolam 0.25 mg QID,severe sedation
same,side effects,[1]; Example 8: alprazolam 5 mg/day,experienced alprazolam side effects
CCOC(=O)c1ncn2c1CN(C)C(=O)c1cc(F)ccc1-2 [flumazenil],low back pain after injection,"Example 3: phantom-like pain, patient on alprazolam 6 mg a day, flumazenil 100 μg, 5 minutes after injection, before 7/10",5/10
same,effect on midazolam response to pain,Example 4: flumazenil 200 μg iv 5 minutes after midazolam 2 mg iv (ratio 10:1),without altering the midazolam response to pain
same,pain after treatment,"Example 5: flumazenil 200 μg iv after midazolam 2 mg iv, before 3/10",pain disappeared
same,pain 25 minutes after treatment,"Example 8: further flumazenil 300 μg iv after midazolam 5 mg and flumazenil 500 μg, 25 minutes after treatment",4/10
same,pain rating after treatment,"Example 8: further flumazenil 300 μg iv ten minutes later, after 5 minutes, before 5/10",3/10
same,pain level while moving arm,"human, in vivo, iv",1/10
Cc1ncc2n1-c1ccc(Cl)cc1C(c1ccccc1F)=NC2 [midazolam],improvement of pain,"human, in vivo, iv",40%
same,level of pain after treatment,"human, in vivo, iv",3/10
same,pain level after treatment,"human, in vivo, iv",0/10
same,pain rating after treatment,"human, in vivo, iv",3/10
same,sedation,[1]; Example 2: midazolam 2 mg iv,experienced sedation
same,sedation,[1]; Example 5: midazolam 2 mg iv,did not present any signs of sedation
